Source: ChEMBL document CHEMBL1909046, “DrugMatrix in vitro pharmacology data”
Where a SMILES comes first, the peptide text is derived from it. Bridges are numbered along the chain shown (N, C = ends). [ ]: non-standard residue; d: D form. The star is where a group is joined. Threoninol(2S,3R) = C[C@@H](O)[C@H](CO)N*

What was measured:
[1] = molecular target: T1, Angiotensin-converting enzyme (Oryctolagus cuniculus, UniProt P12822); format: tissue-based, Lung;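 also: enzymatic inhibition of angiotensin-converting enzyme measured with FAPGG as the substrate; in other assays of this panel Not Active means under 50% inhibition at 10 µM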
T1 sequence (P12822 whole entry): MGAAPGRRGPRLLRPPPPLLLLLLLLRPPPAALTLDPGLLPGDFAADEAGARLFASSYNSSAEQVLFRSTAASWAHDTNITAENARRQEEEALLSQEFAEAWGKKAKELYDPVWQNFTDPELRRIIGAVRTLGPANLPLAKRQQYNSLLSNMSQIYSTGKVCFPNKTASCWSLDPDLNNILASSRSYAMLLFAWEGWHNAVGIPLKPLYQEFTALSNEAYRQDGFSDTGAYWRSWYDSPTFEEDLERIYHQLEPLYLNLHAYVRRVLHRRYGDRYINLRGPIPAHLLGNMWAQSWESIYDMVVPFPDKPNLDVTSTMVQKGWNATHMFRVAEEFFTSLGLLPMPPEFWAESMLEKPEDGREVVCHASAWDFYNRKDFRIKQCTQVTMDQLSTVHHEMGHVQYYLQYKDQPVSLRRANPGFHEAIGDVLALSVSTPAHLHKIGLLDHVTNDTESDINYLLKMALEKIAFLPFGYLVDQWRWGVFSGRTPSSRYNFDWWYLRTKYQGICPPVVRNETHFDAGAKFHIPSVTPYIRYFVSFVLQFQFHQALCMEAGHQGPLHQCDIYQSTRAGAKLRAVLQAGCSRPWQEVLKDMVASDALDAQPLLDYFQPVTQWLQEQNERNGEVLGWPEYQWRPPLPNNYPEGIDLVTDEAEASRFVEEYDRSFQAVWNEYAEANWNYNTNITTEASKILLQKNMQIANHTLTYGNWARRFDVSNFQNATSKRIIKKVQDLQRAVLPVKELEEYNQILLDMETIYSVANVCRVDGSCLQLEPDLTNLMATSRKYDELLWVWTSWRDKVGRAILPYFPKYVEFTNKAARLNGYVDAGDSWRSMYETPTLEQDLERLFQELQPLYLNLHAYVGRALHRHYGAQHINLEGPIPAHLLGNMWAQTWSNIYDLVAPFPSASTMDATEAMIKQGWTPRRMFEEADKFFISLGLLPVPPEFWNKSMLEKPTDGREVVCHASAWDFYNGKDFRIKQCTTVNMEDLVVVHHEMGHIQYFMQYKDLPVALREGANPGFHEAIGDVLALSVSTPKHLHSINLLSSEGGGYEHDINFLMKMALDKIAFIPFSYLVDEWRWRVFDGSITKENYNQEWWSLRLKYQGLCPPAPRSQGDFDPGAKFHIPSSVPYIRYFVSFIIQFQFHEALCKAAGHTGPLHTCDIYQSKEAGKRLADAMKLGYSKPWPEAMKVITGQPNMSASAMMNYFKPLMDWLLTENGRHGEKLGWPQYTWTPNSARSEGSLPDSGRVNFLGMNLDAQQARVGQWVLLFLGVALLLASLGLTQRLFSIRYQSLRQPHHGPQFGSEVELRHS

Mu-type opioid receptor = Mu-type opioid receptor (Homo sapiens, UniProt P35372); test: DRUGMATRIX: Opiate mu (OP3, MOP) radioligand binding (ligand: [3H] Diprenorphine); format: cell membranes, CHO-K1, Membrane; conditions: cho-k1; Not Active = under 50% inhibition at 10 µM
Sequence of Mu-type opioid receptor (P35372 whole entry): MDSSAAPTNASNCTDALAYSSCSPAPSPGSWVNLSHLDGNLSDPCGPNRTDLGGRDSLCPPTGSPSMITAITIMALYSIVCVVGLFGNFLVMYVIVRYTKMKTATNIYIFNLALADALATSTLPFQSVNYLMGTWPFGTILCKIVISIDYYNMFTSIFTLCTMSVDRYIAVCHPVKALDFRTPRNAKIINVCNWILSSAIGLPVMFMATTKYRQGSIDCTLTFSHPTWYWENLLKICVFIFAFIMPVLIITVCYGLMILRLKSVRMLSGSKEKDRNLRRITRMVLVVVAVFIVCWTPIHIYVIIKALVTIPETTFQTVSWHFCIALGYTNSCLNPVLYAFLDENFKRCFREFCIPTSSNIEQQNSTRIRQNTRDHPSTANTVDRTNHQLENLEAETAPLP

Leukotriene C4 synthase = molecular target: T2, Leukotriene C4 synthase (Cavia porcellus, UniProt A6XA80); format: tissue-based, Lung;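 also: enzyme inhibition assay of leukotriene C4 synthase, using LTA4 as the substrate; in other assays of this panel Not Active means under 50% inhibition at 10 µM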
T2 sequence (A6XA80 whole entry): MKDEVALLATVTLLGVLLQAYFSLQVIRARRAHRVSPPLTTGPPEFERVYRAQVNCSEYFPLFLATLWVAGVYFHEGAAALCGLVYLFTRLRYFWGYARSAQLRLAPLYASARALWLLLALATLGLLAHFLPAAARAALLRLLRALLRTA

[2] = molecular target: Sigma non-opioid intracellular receptor 1 (Homo sapiens, UniProt Q99720); test: DRUGMATRIX: Sigma1 radioligand binding (ligand: [3H] Haloperidol); format: cell membranes, Jurkat, Membrane; conditions: jurkat; Not Active = under 50% inhibition at 10 µM
Sequence of Sigma non-opioid intracellular receptor 1 (Q99720 whole entry): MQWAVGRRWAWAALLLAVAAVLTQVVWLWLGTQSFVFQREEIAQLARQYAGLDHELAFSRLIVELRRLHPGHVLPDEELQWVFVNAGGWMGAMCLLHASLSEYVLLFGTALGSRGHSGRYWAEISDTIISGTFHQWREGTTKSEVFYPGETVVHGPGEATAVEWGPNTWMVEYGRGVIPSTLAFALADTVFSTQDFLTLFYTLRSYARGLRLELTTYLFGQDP

Cytochrome P450 2A6 = molecular target: T3, Cytochrome P450 2A6 (Homo sapiens, UniProt P11509); conditions: bti-tn-5b1-4; also: in other assays of this panel Not Active means under 50% inhibition at 10 µM
T3 sequence (P11509 whole entry): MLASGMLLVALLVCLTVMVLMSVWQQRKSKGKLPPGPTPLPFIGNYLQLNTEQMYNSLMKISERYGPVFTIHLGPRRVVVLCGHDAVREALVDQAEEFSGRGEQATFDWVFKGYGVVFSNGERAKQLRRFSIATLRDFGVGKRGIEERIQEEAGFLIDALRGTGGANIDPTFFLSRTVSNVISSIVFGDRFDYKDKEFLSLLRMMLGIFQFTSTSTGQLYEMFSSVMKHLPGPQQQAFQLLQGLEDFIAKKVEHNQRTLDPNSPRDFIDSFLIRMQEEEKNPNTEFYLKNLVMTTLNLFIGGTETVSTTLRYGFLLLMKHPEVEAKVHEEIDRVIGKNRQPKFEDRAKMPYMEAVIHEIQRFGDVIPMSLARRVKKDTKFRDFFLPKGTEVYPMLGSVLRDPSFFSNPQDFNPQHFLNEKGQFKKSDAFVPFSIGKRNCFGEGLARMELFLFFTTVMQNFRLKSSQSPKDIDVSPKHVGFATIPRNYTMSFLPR

[3] = molecular target: Delta-type opioid receptor (Homo sapiens, UniProt P41143); format: cell membranes, HEK293, Membrane; conditions: hek293; also: in other assays of this panel Not Active means under 50% inhibition at 10 µM
Sequence of Delta-type opioid receptor (P41143 whole entry): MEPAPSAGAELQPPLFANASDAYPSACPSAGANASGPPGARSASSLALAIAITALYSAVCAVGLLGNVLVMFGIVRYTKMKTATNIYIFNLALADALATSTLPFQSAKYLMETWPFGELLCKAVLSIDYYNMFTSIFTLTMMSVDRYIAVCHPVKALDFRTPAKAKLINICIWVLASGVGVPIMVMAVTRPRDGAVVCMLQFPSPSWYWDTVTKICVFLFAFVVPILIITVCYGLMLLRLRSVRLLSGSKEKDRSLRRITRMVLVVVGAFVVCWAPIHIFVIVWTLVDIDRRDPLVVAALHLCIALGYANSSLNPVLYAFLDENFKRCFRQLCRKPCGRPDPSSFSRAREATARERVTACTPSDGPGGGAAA

Insulin receptor = Insulin receptor (Rattus norvegicus, UniProt P15127); format: cell membranes, Wistar, Liver, Membrane; also: in other assays of this panel Not Active means under 50% inhibition at 10 µM
Sequence of Insulin receptor (P15127 27-759 limits assumed): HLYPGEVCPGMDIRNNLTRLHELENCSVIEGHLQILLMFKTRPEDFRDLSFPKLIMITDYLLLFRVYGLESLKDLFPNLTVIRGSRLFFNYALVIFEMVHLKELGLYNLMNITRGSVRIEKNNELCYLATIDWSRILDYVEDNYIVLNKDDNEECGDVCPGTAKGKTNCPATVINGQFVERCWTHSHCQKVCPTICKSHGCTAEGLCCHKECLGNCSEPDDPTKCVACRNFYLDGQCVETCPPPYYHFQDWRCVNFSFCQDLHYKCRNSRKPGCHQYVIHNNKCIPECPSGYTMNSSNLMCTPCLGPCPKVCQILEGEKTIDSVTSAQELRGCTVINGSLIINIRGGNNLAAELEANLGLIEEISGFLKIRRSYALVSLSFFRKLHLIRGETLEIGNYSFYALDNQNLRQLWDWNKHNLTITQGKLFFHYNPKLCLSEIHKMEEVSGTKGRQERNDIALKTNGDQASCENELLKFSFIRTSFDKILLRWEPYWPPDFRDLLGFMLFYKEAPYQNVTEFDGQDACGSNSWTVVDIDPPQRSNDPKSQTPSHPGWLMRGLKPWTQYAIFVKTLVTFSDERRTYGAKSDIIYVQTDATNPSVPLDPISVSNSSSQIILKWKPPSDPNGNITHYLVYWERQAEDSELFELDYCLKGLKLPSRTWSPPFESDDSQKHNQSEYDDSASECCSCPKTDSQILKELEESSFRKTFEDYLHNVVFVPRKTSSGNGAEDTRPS
Sequence of Insulin receptor (P15127 764-1383 limits assumed): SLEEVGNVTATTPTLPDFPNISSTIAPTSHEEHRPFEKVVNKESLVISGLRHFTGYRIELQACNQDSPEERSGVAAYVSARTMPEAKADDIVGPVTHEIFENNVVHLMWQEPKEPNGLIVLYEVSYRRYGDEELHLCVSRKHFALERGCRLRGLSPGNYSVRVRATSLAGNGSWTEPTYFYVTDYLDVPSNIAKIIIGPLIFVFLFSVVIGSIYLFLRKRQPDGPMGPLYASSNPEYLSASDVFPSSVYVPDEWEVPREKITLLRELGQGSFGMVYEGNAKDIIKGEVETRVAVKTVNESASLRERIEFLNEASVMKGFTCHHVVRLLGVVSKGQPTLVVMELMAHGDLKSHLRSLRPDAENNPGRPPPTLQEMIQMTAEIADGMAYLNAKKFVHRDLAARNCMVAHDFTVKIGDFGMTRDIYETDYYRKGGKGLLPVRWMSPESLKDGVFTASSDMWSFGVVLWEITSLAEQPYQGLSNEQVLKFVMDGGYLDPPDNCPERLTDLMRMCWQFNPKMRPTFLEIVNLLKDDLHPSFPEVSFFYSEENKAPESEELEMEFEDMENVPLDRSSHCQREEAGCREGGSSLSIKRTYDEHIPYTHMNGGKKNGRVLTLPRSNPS

COc1ccccc1C(=O)N1CCC(Cc2ccccc2)CC1
Not Active: IC50 [1] | IC50 (Mu-type opioid receptor) | IC50 (Leukotriene C4 synthase) | IC50 [2] | IC50 (Cytochrome P450 2A6) | Ki (Cytochrome P450 2A6) | IC50 [3] | IC50 (Insulin receptor)

Cc1ccccc1C(=O)N1CCC(Cc2ccccc2)CC1
Not Active: IC50 [1] | IC50 (Mu-type opioid receptor) | IC50 (Leukotriene C4 synthase) | IC50 [2] | IC50 (Cytochrome P450 2A6) | Ki (Cytochrome P450 2A6) | IC50 [3] | IC50 (Insulin receptor)

O=C1CC[C@H](N2C(=O)c3ccccc3C2=O)C(=O)N1
Not Active: IC50 [1] | IC50 (Mu-type opioid receptor) | IC50 (Leukotriene C4 synthase) | IC50 [2] | IC50 (Cytochrome P450 2A6) | Ki (Cytochrome P450 2A6) | IC50 [3] | IC50 (Insulin receptor)

N=C(Nc1ccccc1)Nc1ccccc1
Not Active: IC50 [1] | IC50 (Mu-type opioid receptor) | IC50 (Leukotriene C4 synthase) | IC50 (Cytochrome P450 2A6) | Ki (Cytochrome P450 2A6) | IC50 [3] | IC50 (Insulin receptor)

C[C@@H](O)[C@H](CO)NC(=O)[C@@H]1CSSC[C@H](NC(=O)[C@H](N)Cc2ccccc2)C(=O)N[C@@H](Cc2ccccc2)C(=O)N[C@H](Cc2c[nH]c3ccccc23)C(=O)N[C@@H](CCCCN)C(=O)N[C@@H]([C@@H](C)O)C(=O)N1 (H-[dF]CF[dW]KTC-{Threoninol(2S,3R)}; disulfide 2-7)
Not Active: IC50 [1] | IC50 (Mu-type opioid receptor) | IC50 (Leukotriene C4 synthase) | IC50 [2] | IC50 (Cytochrome P450 2A6) | Ki (Cytochrome P450 2A6) | IC50 [3] | IC50 (Insulin receptor)

S=C=Nc1cccc2ccccc12 [1-NAPHTHYLISOTHIOCYANATE]
Not Active: IC50 [1] | IC50 (Leukotriene C4 synthase) | IC50 [2] | IC50 (Cytochrome P450 2A6) | Ki (Cytochrome P450 2A6) | IC50 [3] | IC50 (Insulin receptor)

O=C1CC2(CCCC2)CC(=O)N1CCCCN1CCN(c2ncccn2)CC1 [BUSPIRONE]
Not Active: IC50 [1] | IC50 (Mu-type opioid receptor) | IC50 (Leukotriene C4 synthase) | IC50 (Cytochrome P450 2A6) | Ki (Cytochrome P450 2A6) | IC50 [3] | IC50 (Insulin receptor)

C[C@@]12C(=O)OC(=O)[C@]1(C)[C@H]1CC[C@@H]2O1 [CANTHARIDIN]
Not Active: IC50 [1] | IC50 (Leukotriene C4 synthase) | IC50 [2] | IC50 (Cytochrome P450 2A6) | Ki (Cytochrome P450 2A6) | IC50 [3] | IC50 (Insulin receptor)

O=NN(CCCl)C(=O)NCCCl [CARMUSTINE]
Not Active: IC50 [1] | IC50 (Mu-type opioid receptor) | IC50 (Leukotriene C4 synthase) | IC50 [2] | IC50 [3] | IC50 (Insulin receptor)

O=C(N[C@H](CO)[C@H](O)c1ccc([N+](=O)[O-])cc1)C(Cl)Cl [CHLORAMPHENICOL]
Not Active: IC50 [1] | IC50 (Mu-type opioid receptor) | IC50 (Leukotriene C4 synthase) | IC50 [2] | IC50 [3] | IC50 (Insulin receptor)

C[C@@H]1C[C@@H]([C@H](O)CC2CC(=O)NC(=O)C2)C(=O)[C@@H](C)C1 [CYCLOHEXIMIDE]
Not Active: IC50 [1] | IC50 (Leukotriene C4 synthase) | IC50 [2] | IC50 [3] | IC50 (Insulin receptor)

C/C=C/C[C@@H](C)[C@@H](O)[C@H]1C(=O)N[C@@H](CC)C(=O)N(C)CC(=O)N(C)[C@@H](CC(C)C)C(=O)N[C@@H](C(C)C)C(=O)N(C)[C@@H](CC(C)C)C(=O)N[C@@H](C)C(=O)N[C@H](C)C(=O)N(C)[C@@H](CC(C)C)C(=O)N(C)[C@@H](CC(C)C)C(=O)N(C)[C@@H](C(C)C)C(=O)N1C [CYCLOSPORINE]
Not Active: IC50 [1] | IC50 (Mu-type opioid receptor) | IC50 (Leukotriene C4 synthase) | IC50 [2] | IC50 [3] | IC50 (Insulin receptor)

COP(=O)(OC)OC=C(Cl)Cl [DICHLORVOS]
Not Active: IC50 [1] | IC50 (Leukotriene C4 synthase) | IC50 [2] | IC50 (Cytochrome P450 2A6) | Ki (Cytochrome P450 2A6) | IC50 [3] | IC50 (Insulin receptor)

NC(=O)NO [HYDROXYUREA]
Not Active: IC50 [1] | IC50 (Mu-type opioid receptor) | IC50 (Leukotriene C4 synthase) | IC50 [2] | IC50 [3] | IC50 (Insulin receptor)

COc1ccc2cc([C@H](C)C(=O)O)ccc2c1 [NAPROXEN]
Not Active: IC50 [1] | IC50 (Mu-type opioid receptor) | IC50 (Leukotriene C4 synthase) | IC50 [2] | IC50 [3] | IC50 (Insulin receptor)

CCn1cc(C(=O)O)c(=O)c2cc(F)c(N3CCN(C)CC3)cc21 [PEFLOXACIN]
Not Active: IC50 [1] | IC50 (Mu-type opioid receptor) | IC50 (Leukotriene C4 synthase) | IC50 [2] | IC50 [3] | IC50 (Insulin receptor)

O=C(C1CCCCC1)N1CC(=O)N2CCc3ccccc3C2C1 (configuration not stated) [PRAZIQUANTEL]
Not Active: IC50 [1] | IC50 (Mu-type opioid receptor) | IC50 (Leukotriene C4 synthase) | IC50 (Cytochrome P450 2A6) | Ki (Cytochrome P450 2A6) | IC50 [3] | IC50 (Insulin receptor)

CADMIUM DICHLORIDE
Not Active: IC50 [1] | Ki [1] | IC50 (Leukotriene C4 synthase) | Ki (Leukotriene C4 synthase) | IC50 [2] | Ki [2] | IC50 (Cytochrome P450 2A6) | Ki (Cytochrome P450 2A6) | IC50 [3] | Ki [3] | IC50 (Insulin receptor) | Ki (Insulin receptor)
